Where “and” joins values, the source holds several entries; their conditions need not be identical. Equal entries are not always repeated. Where two headings read alike, the source gives them in different places.
Legend:
[1] = system: E. faecalis strain 1 (MDR clinical isolate); test: MIC/MBC by broth micro-dilution (CLSI); assay type: cell-based, Enterococcus faecalis; details: for MBC: in square brackets
Description: (§1) The compounds were initially tested with a methicillin-resistant S. aureus and an E. faecalis clinical isolates (details in the experimental section), two MDR strains according to definition by Magiorakos et al.. The activity of studied compounds was assessed by broth micro-dilution method. Minimal Inhibitory Concentration (MIC), and Minimal Bactericidal Concentration (MBC) were determined and possible bacteriostatic or bactericidal activity was also investigated.
(§2) MICs and MBCs were determined according to CLSI (Clinical and Laboratory Standards Institute) guidelines, in triplicate. Results are shown as modal values of the three replicates. According to MIC and MBC data, the killing rate was calculated as the ratio between MBC and MIC on which basis it is possible to define the compounds tested as bactericides (killing rate = 1–4), or bacteriostatic (killing rate > 4).
(§3) Preparation of the solution containing molecules: for each molecule to be tested, solutions were made as DMSO stock, with a concentration of 2.560 mg/mL. Scalar dilutions were than prepared directly on plates by using Mueller Hinton Broth (MHB) as a growth medium (range 0.5–256 µg/mL).
(§4) Bacterial suspension preparation: cryostrains preserved at −80 °C were recovered by incubation in growth medium (Brain Heart Infusion Broth, BHI) for 24–48 h at 35 ± 2 °C followed by passages in agar growth medium (Columbia Blood Agar). Colonies with less than 30 h were suspended in MHB with the purpose to prepare a bacterial suspension with a turbidity of 0.5 MF, containing approximately 1.5 × 10^8 cfu/mL. This suspension was than diluted in MHB until reaching a final concentration of 5 × 10^4 CFU/well. Simultaneously, check in broth-microdilution only with solvent (in order to exclude that the effect of growth inhibition might be due to the drug solution solvent), positive growth control in absence of DMSO and drug, and negative purity control only with injection broth were performed.
E. faecalis strain 1 (collection, MDR) vanA/B negative; aminoglycosides high-level resistant to aminoglycosides (gentamicin and streptomycin) and ampicillin.

[2] = system: tumor cell line H-460 NCI; set-up: method as in PMID 32920362; details: ± SD, ref [17], read-out: IC50 (concentration required for 50% inhibition of cell growth); cited from earlier work
[3] = system: S. aureus strain 1 (MDR clinical isolate, MRSA, mecA positive); test: MIC/MBC by broth micro-dilution (CLSI); assay type: cell-based, Staphylococcus aureus; details: for MIC / MBC: S. aureus Strain 1; for MBC: in square brackets; for bactericidal or bacteriostatic activity (killing rate = MBC/MIC): S. aureus and E. faecalis, bactericides killing rate = 1–4, bacteriostatic > 4
Description: as §1, §2, §3, §4
S. aureus strain 1 (collection, MDR): mecA positive; MRSA, β-lactamase positive, resistant to ciprofloxacin, gentamicin and erythromycin.

tumor cell line IGROV-1 = details: ± SD, read-out: IC50 (concentration required for 50% inhibition of cell growth), cited from earlier work
[4] = system: S. aureus ATCC 25923 (reference strain); test: MIC/MBC by broth micro-dilution (CLSI); assay type: cell-based; details: Staphylococcus aureus; for MBC: ATCC25923, in square brackets, modal value; for MIC: ATCC25923, modal value
Description: (§5) To expand the previously obtained results compounds 16 and 17 were also tested on wider a selection of strains: two other MDR S. aureus and E. faecalis clinical isolates, the S. aureus ATCC 25923 and the E. faecalis ATCC 51299 reference strains. Compound 2, which was endowed with low antimicrobial activity, was tested as well, to confirm its low efficacy. Adarotene was used as control compound (Table 2).
as §2, §3, §4
S. aureus ATCC 25923 (reference strain): mecA negative; multi-susceptible.

[5] = system: E. faecalis ATCC 51299 (reference strain, vanB positive); test: MIC/MBC by broth micro-dilution (CLSI); assay type: cell-based; details: Enterococcus faecalis; for MBC: ATCC51299, in square brackets, modal value; for MIC: ATCC51299, modal value
Description: as §5, §2, §3, §4
E. faecalis ATCC 51299 (reference strain): vanB positive.

[6] = system: E. faecalis strain 2 (MDR clinical isolate); test: MIC/MBC by broth micro-dilution (CLSI); assay type: cell-based; details: Enterococcus faecalis, modal value; for MBC: in square brackets
Description: as §5, §2, §3, §4
E. faecalis strain 2 (collection, MDR) vanA/B negative; aminoglycosides high-level resistant to aminoglycosides (gentamicin and strseptomycin) and ampicillin.

[7] = system: S. aureus strain 2 (MDR clinical isolate); test: MIC/MBC by broth micro-dilution (CLSI); assay type: cell-based; details: Staphylococcus aureus, modal value; for MBC: in square brackets
Description: as §5, §2, §3, §4
S. aureus strain 2 (collection, MDR): mecA negative; β-lactamase positive, resistant to erythromycin, gentamicin, clindamycin and fusidic acid.

[8] = Enterococcus faecalis, modal value, read-out: MIC
[9] = modal value of three replicates
[10] = Staphylococcus aureus, MRSA, modal value, read-out: MIC
[11] = Staphylococcus aureus, MRSA, modal value of three replicates, read-out: MIC
[12] = Enterococcus faecalis, modal value
[13] = Enterococcus faecalis, modal value of three replicates, read-out: MIC
[14] = Staphylococcus aureus, MRSA, modal value

Structure (SMILES)	MIC [1, 8]	MIC [1, 9]	MIC [3, 9]	MIC [3, 10]	MIC [3, 11]	MIC [1, 13]	MBC [1, 12]	IC50 (tumor cell line IGROV-1; ref [13])	MBC [3, 14]	other results
O=C(O)/C=C/c1ccc(-c2ccc(O)c(C34CC5CC(CC(C5)C3)C4)c2)c(C=NOCC(=O)O)c1 [Compound 18]	269 µM	32 to 128 µg/mL and 128 µg/mL	32 to 128 µg/mL and 128 µg/mL	269 µM						IC50 [2]: > 10 µM
CON=Cc1cc(/C=C/C(=O)O)ccc1-c1ccc(O)c(C23CC4CC(CC(C4)C2)C3)c1 [Compound 17]	19 µM	2 to 8 µg/mL and 8 µg/mL	4 [4] µg/mL	9 µM	4 µg/mL		16 µg/mL and 38 µM		4 µg/mL and 9 µM	IC50 [2]: > 10 µM; MBC [4]: 4 µg/mL and 10 µM; MIC [4]: 2 µg/mL and 5 µM; MBC [5]: 32 µg/mL and 74 µM; MIC [5]: 8 µg/mL and 18 µM; MBC [6]: 16 µg/mL and 36 µM; MIC [6]: 8 µg/mL and 18 µM; MBC [7]: 32 µg/mL and 74 µM; MIC [7]: 4 µg/mL and 10 µM; bactericidal or bacteriostatic activity (killing rate = MBC/MIC) [3]: bactericidal effect
COc1cc(-c2ccc(/C=C/C(=O)O)cc2)cc(C23CC4CC(CC(C4)C2)C3)c1O [Compound 11]	20 µM			40 µM	16 µg/mL	8 µg/mL			32 µg/mL and 80 µM	
O=Cc1cc(-c2ccc(/C=C/C(=O)O)cc2)cc(C23CC4CC(CC(C4)C2)C3)c1O [Compound 15]	159 µM			159 µM	64 µg/mL	64 µg/mL				IC50 (tumor cell line IGROV-1; ref [14]): 1640 ± 30 nM
N=C(N)NCc1cc(/C=C/C(=O)O)ccc1-c1ccc(O)c(C23CC4CC(CC(C4)C2)C3)c1 [Compound 19]	72 µM	32 µg/mL	32 µg/mL	72 µM	32 to 128 µg/mL	32 to 128 µg/mL	64 µg/mL and 144 µM		64 µg/mL and 144 µM	IC50 [2]: > 10 µM
CC(C)(C)c1cc(-c2ccc(/C=C/C(=O)O)cc2)ccc1O [Compound 1]	> 864 µM			216 µM	64 µg/mL	> 256 µg/mL		30000 nM		
O=C(O)/C=C/c1ccc(-c2cc3c(c(C45CC6CC(CC(C6)C4)C5)c2)OCCO3)cc1 [Compound 12]	5 µM			9 µM	4 µg/mL	2 µg/mL				IC50 (tumor cell line IGROV-1; ref [14]): 230 ± 70 nM
O=Cc1cc(/C=C/C(=O)O)ccc1-c1ccc(O)c(C23CC4CC(CC(C4)C2)C3)c1 [Compound 20]	20 µM			5 µM	2 µg/mL	8 µg/mL			32 µg/mL and 80 µM	IC50 [2]: 3.2 ± 0.2 µM
CC(C)(C)ON=Cc1cc(/C=C/C(=O)O)ccc1-c1ccc(O)c(C23CC4CC(CC(C4)C2)C3)c1 [Compound 16]	4 µM	2 µg/mL	4 [4] µg/mL	8 µM	4 µg/mL	2 to 8 µg/mL	4 µg/mL and 8 µM		4 µg/mL and 8 µM	IC50 [2]: > 10 µM; MBC [4]: 4 µg/mL and 8 µM; MIC [4]: 2 µg/mL and 4 µM; MBC [5]: 8 µg/mL and 16 µM; MIC [5]: 2 µg/mL and 4 µM; MBC [6]: 8 µg/mL and 16 µM; MIC [6]: 2 µg/mL and 4 µM; MBC [7]: 2 µg/mL and 4 µM; MIC [7]: 2 µg/mL and 4 µM; bactericidal or bacteriostatic activity (killing rate = MBC/MIC) [3]: bactericidal effect
CC(=O)NCc1cc(-c2ccc(/C=C/C(=O)O)cc2)cc(C23CC4CC(CC(C4)C2)C3)c1O [Compound 13]	9 µM			18 µM	8 µg/mL	4 µg/mL	16 µg/mL and 36 µM		16 µg/mL and 36 µM	IC50 (tumor cell line IGROV-1; ref [14]): 1240 ± 70 nM
O=C(O)C=Cc1ccc(-c2ccc(OCCCCO)c(C34CC5CC(CC(C5)C3)C4)c2)cc1 [Compound 2, 3-[3′-adamantan-1-yl-4′-(hydroxybutoxy)-biphenyl-4-yl]-acrylic acid]	287 µM	128 µg/mL	256 µg/mL	573 µM	> 256 µg/mL	> 256 µg/mL				MIC [4]: 256 µg/mL and 572 µM; MIC [5]: 64 µg/mL and 143 µM; MIC [6]: 128 µg/mL and 286 µM; MIC [7]: 256 µg/mL and 572 µM

Now from value to molecule, other results behind:

MIC [1, 8]	MIC [1, 9]	MIC [3, 9]	MIC [3, 10]	MIC [3, 11]	MIC [1, 13]	Structure (SMILES)	MBC [1, 12]	IC50 (tumor cell line IGROV-1; ref [13])	MBC [3, 14]	other results
> 657 µM	>= 32 µg/mL and >256 µg/mL	64 µg/mL	164 µM	≥ 32 µg/mL		O=C(/C=C/c1ccc(-c2ccc(O)c(C34CC5CC(CC(C5)C3)C4)c2)cc1)NO [Compound 5]				IC50 (tumor cell line IGROV-1; ref [15]): 1100 ± 600 nM
3 µM			21 µM	8 µg/mL	1 µg/mL	O=C(O)/C=C/c1ccc(-c2ccc(O)c(C34CC5CC(CC(C5)C3)C4)c2)cc1 [Adarotene, adarotene]	32 µg/mL and 85 µM	230 ± 80 nM	16 µg/mL and 42 µM	MBC [4]: 16 µg/mL and 42 µM; MIC [4]: 8 µg/mL and 21 µM; MBC [5]: 32 µg/mL and 84 µM; MIC [5]: 2 µg/mL and 5 µM; MBC [6]: 32 µg/mL and 84 µM; MIC [6]: 4 µg/mL and 10 µM; MBC [7]: 8 µg/mL and 21 µM; MIC [7]: 4 µg/mL and 10 µM
3 µM	1 µg/mL	2 µg/mL	5 µM	2 to 4 µg/mL	1 to 4 µg/mL	C/C(=C\c1ccc(-c2ccc(O)c(C34CC5CC(CC(C5)C3)C4)c2)cc1)C(=O)O [Compound 8]	8 µg/mL and 21 µM	7190 ± 1270 nM	8 µg/mL and 20 µM	
> 550 µM	>= 32 µg/mL and >256 µg/mL	>= 32 µg/mL and >256 µg/mL	> 549 µM			O=C(/C=C/c1ccc(-c2ccc(O)c(C34CC5CC(CC(C5)C3)C4)c2)cc1)Nc1ccc(O)cc1 [Compound 6]		6600 ± 500 nM		
42 µM	16 µg/mL	16 [16] µg/mL	42 µM	16 µg/mL	16 µg/mL	O=C(O)CCc1ccc(-c2ccc(O)c(C34CC5CC(CC(C5)C3)C4)c2)cc1 [Compound 10]	32 µg/mL and 85 µM	48400 ± 880 nM	16 µg/mL and 42 µM	
90 µM	32 µg/mL	>= 32 µg/mL and 128 [128] µg/mL	361 µM		≥ 32 µg/mL	N#C/C=C/c1ccc(-c2ccc(O)c(C34CC5CC(CC(C5)C3)C4)c2)cc1 [Compound 4]	128 µg/mL and 360 µM	8300 ± 1400 nM	128 µg/mL and 361 µM	
10 µM	1 to 4 µg/mL and 4 µg/mL	4 µg/mL	10 µM	2 to 4 µg/mL		O=C(O)/C(F)=C\c1ccc(-c2ccc(O)c(C34CC5CC(CC(C5)C3)C4)c2)cc1 [Compound 7]	16 µg/mL and 40 µM	> 3000 nM	16 µg/mL and 40 µM	

Reference: PMC7912516, “New Antimicrobials Based on the Adarotene Scaffold with Activity against Multi-Drug Resistant Staphylococcus aureus and Vancomycin-Resistant Enterococcus” (Antibiotics, 2021)
